Experiments:
[1] = test system: human retinal endothelial cells (HREC); experiment: Proliferation of human retinal endothelial cells (crystal violet); type: cell-based; conditions: 72 hours
Description: (§1) Primary cultures of human retinal endothelial cells (HREC) were used. Cells were obtained from Cell Systems (Virginia, USA) and subcultured with CSC complete medium (Cell Systems). Cells at 2 to 5 passages were seeded in 24-well plates at 7,500 cells/well density and, once attached, the cells were treated or not treated (controls) with 2A-5HBS (500 and 1000 μM) or 5A-2HBS (500 and 1000 μM) and they were allowed to proliferate for 72 hours, with daily medium changes. After that, the proliferation of HREC was evaluated by staining the fixed cells with crystal violet. The number of cells is proportional to the amount of retained dye, which was spectrophotometrically determined by measuring absorbance at 595 nm after removing the dye from the cells. Data are expressed as the percentage of absorbance at 595 nm obtained in control conditions. Data were obtained from two different experiments performed in triplicate.
as §1, with “2,5-DHCME (50” for “2A-5HBS (500”, “100” for “1000 μM) or 5A-2HBS (500 and 1000”, “changes. Under the same conditions, other cultures were treated with calcium 2,5-dihydroxybenzenesulfonate (DHBS; 100 μM) for comparison.” for “changes.”

[2] = test system: corneal neovascularization; experiment: Topical solution in a patient with corneal neovascularization; type: in vivo, human; conditions: 5% solution of potassium salt, 4 drops a day topically, 19 days, one patient
Source text: Photographs showing the presence of corneal neovascularization in a patient before being treated (A) and after 19 days of topical application of a solution containing 5% of potassium 2,5-dihydroxybenzoate (B). The treatment consisted of daily topical application of 4 drops of such solution.
4 drops a day were topically applied in a patient that presented a corneal neovascularization process refractory to any type of previous treatment.

[3] = target: T1, fibroblast growth factor-1 (FGF-1) (Homo sapiens, UniProt P05230); experiment: Co-crystal structure with fibroblast growth factor-1; type: binding; conditions: for binding site on FGF-1: crystal diffraction of the complex; for acetoxyl groups of the compound when bound to FGF-1: crystal diffraction, electron density contoured at 1σ
Source text: (§2) FIG. 24. 2-acetoxy-5-hydroxybenzenesulfonic acid co-crystallized with fibroblast growth factor-1. […] The compound occupies a place that is very close to that described occupied by 2,5-dihydroxybenzenesulfonic acid, the aromatic ring of which forms a cation-π bond with the N^ε group of lysine 132, which is marked in panel A as reference. […] In panels A and B, the protein surface is colored according to its electrostatic potential (light grey: negative charge; dark grey: positive charge; white: lack of charge).
as §2, with “25. 5-acetoxy-2-hydroxybenzenesulfonic” for “24. 2-acetoxy-5-hydroxybenzenesulfonic”
as §2, with “26. 2,5-diacetoxybenzenesulfonic” for “24. 2-acetoxy-5-hydroxybenzenesulfonic”
Based on the crystal diffraction of the FGF-1:2-acetoxy-5-hydroxybenzene sulfonic acid, FGF-1:5-acetoxy-2-hydroxybenzene sulfonic acid and FGF-1:2,5-diacetoxybenzene sulfonic acid complexes, the structures of the complexes were calculated and represented. FIGS. 24, 25 and 26, which show the surface of the dyed protein according to its electrostatic potential (light grey: negative charge; dark grey: positive charge; white: lack of charge), show the manner in which 2-acetoxy-5-hydroxybenzene sulfonic acid, 5-acetoxy-2-hydroxybenzene sulfonic acid and 2,5-diacetoxybenzene sulfonic acid interact, respectively, with FGF-1.

rat glioma C6 cells = experiment: Proliferation of rat glioma C6 cells (crystal violet); type: cell-based; conditions: 500 μM, 48 h
Description: FIG. 23. […] 5A-2HBS and 2A-5HBS were administered or not (control) after seeding C6 cells in 24 well plates (10^4 per well) until they were fixed 48 hours later. Data are expressed as the mean±SEM of the percentage of absorbance at 595 nm obtained in control cultures, which is proportional to the number of cells stained with crystal violet. Data were obtained from 3 cultures for each treatment and 6 control cultures.
The cell line used was the C6 cell line. The cells were cultured as previously described (Cuevas P et al., Neurol Res 2005, 27:797-800). The cells were cultured as adherent cells in Dulbecco's modified Eagle's medium, supplemented with 7.5% (v/v) fetal bovine serum, 10 μg/ml streptomycin and 10 units/ml penicillin. The tumor cells were seeded in 24-well plates at a density of 10,000 cells/well, and were incubated at 37° C. in a humidified chamber with 5% CO2. Once adhered, the cells were treated or not (controls) with (5A-2HBS) (500 μM) or (2A-5HBS) (500 μM) and they were allowed to proliferate for 48 h. After this time the glioma cell proliferation was evaluated by means of staining the fixed cells with crystal violet. The number of cells is proportional to the amount of retained dye, which was determined spectrophotometrically by measuring the absorbance at 595 nm once the dye was extracted from the cells.

[4] = target: T1, fibroblast growth factor-1 (FGF-1); experiment: FGF-1 induced mitogenesis in quiescent Balb/c 3T3 fibroblasts; type: cell-based; conditions: potassium salts, except 2-acetoxy-5-hydroxybenzene sulfonate as calcium salt
Description: The evaluated compounds were used in the form of potassium salt, except in the first case in which calcium salt was used. The experiments were carried out as described in Fernández-Tornero C et al. J Biol Chem, 2003.

T1 sequence (P05230 whole entry, species assumed): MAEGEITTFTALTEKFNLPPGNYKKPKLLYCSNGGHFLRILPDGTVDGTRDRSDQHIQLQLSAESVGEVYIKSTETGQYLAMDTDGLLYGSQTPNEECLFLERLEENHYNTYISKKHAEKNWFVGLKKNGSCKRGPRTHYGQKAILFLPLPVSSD

Row | Structure (SMILES) | HREC proliferation ([1]; 50 μM) | HREC proliferation ([1]; 100 μM, DHBS as calcium salt) | degree of corneal vascularization [2] | binding site on FGF-1 [3] | acetoxyl groups of the compound when bound to FGF-1 [3] | HREC proliferation ([1]; 500 μM) | HREC proliferation ([1]; 1000 μM) | C6 glioma cell proliferation (rat glioma C6 cells) | FGF-1 induced mitogenesis [4]
1 | COC(=O)C=Cc1cc(O)ccc1O [2,5-DHCME, 2,5-dihydroxycinnamic acid methyl ester] | significant inhibition of HREC proliferation | significant inhibition of HREC proliferation |  |  |  |  |  |  | 
2 | O=C([O-])c1cc(O)ccc1O.[K+] [2,5-dihydroxybenzoate, potassium 2,5-dihydroxybenzoate] |  |  | remarkable reduction in the degree of corneal vascularization |  |  |  |  |  | 
3 | CC(=O)Oc1ccc(O)cc1S(=O)(=O)[O-].[K+] [2A-5HBS, potassium 2-acetoxy-5-hydroxybenzene sulfonate] |  |  |  | very close to the one that has been described occupied by 2,5-dihydroxybenzene sulfonic acid | conserve the acetoxyl groups | significant inhibition of HREC proliferation | significant inhibition of HREC proliferation | inhibition of rat glioma cell proliferation | Inhibition of FGF-1 induced mitogenesis was observed
4 | CC(=O)Oc1ccc(O)c(S(=O)(=O)[O-])c1.[K+] [5A-2HBS, potassium 5-acetoxy-2-hydroxybenzene sulfonate] |  |  |  | very close to the one that has been described occupied by 2,5-dihydroxybenzene sulfonic acid | conserve the acetoxyl groups |  |  | inhibition of rat glioma cell proliferation | Inhibition of FGF-1 induced mitogenesis was observed

Reference: patent publication US9198886B2, “Use of 2,5-dihydroxybenzene for the treatment of ocular diseases” (priority 2006, dated 2015)
